# According to patent US20160332971A1, “ARYLQUINOLINE, ARYLQUINOLONE AND ARYLTHIOQUINOLONE DERIVATIVES AND USE THEREOF TO TREAT CANCER” (UNIVERSITY OF KENTUCKY RESEARCH FOUNDATION, priority 2015, published 2016):
# Read-outs that look alike come from different tables or passages of the source.
# How the values were obtained:
# [1] = system: Par-4 secretion from mouse fibroblasts; assay: Par-4 secretion into conditioned medium, quantitative Western blot normalised to CollA1; assay type: cell-based; settings: for Relative Levels of Par-4 Secretion by Arylquins Administered at 500 nM / fold induction at 0.5 µM: 24 h; for Relative Levels of Par-4 Secretion by Arylquins Administered at 500 nM: mouse fibroblasts, CM; for Par-4 secretory activity (in words): SAR discussion; for fold induction at 0.5 µM: Mus musculus, Fibroblast, read-out: Ratio of Par-4 Secretion by Arylquin 1 Relative to Vehicle
# Procedure: Calibration curve developed using fixed amounts (0.05-5 ng) of recombinant TRX-Par-4. […] Therefore the concentration was 0.82 ng/40 μL or 540 pM, In the same fashion, calculation for Par-4 concentration using vehicle (v) was 280 pM.
# Biological activity of 3-Arylquinolines. […] After 24 h exposure, the CM and lysates were subjected to quantitative Western blot analysis for Par-4 and collagen (CollA1).
# Co-immunoprecipitation and Western blot analysis. Protein extracted from cell lysates was filtered, pre-cleared with 25 μL (bed volume) of protein G-Sepharose beads and immunoprecipitated with 1 μg of respective antibodies. The eluted proteins were resolved by SDS-PAGE, and subjected to Western blot analysis as described previously. Bensch, et al. Nature 1968, 218(5147):1176-1177.
# Statistical analyses. All experiments were performed in triplicate to verify the reproducibility of the findings. […] Statistical analyses were carried out with Statistical Analysis System software (SAS Institute, Cary, N.C.) and P values were calculated using the Student t test.
Compound,melting point,Relative Levels of Par-4 Secretion by Arylquins Administered at 500 nM ([1]; Table 1),Par-4 secretory activity (in words) ([1]; 500 nM),Relative Levels of Par-4 Secretion by Arylquins Administered at 500 nM ([1]; Table 2),also measured
"3-(2,3-Difluorophenyl)-N^7,N^7-dimethylquinoline-2,7-diamine [Arylquin 1i]",–,88.4 ± 1.3,"comparable to 1a, 1b and 1h",–,–
"3-(2,5-Difluorophenyl)-N^7,N^7-dimethylquinoline-2,7-diamine [Arylquin 1l]",–,64.9 ± 13.1,–,–,–
CN(C)c1ccc2cc(-c3ccccc3F)c(N)nc2c1 [Arylquin 1a],–,–,superior in potency,–,"increase in Par-4 concentrations in the CM from basal levels ([1]; 500 nM, vs vehicle alone): two-fold increase; Par-4 concentration in the CM ([1]; 500 nM, calibration with recombinant TRX-Par-4 (FIG. 3), vehicle 280 pM): 540 pM"
"CN(C)c1ccc2cc(-c3ccccc3Cl)c(N)nc2c1 [Arylquin 1b, 3-(2-Chlorophenyl)-N^7,N^7-dimethylquinoline-2,7-diamine]",147 to 148 °C,–,comparable in activity,–,–
"CN(C)c1ccc2cc(-c3cccc(F)c3F)c(N)nc2c1 [Arylquin 1h, 3-(2,3-Difluorophenyl)-N^7,N^7-dimethylquinoline-2,7-diamine]",–,93.2 ± 10.6,equipotent to the original arylquinoline 1a,–,"fold induction at 0.5 µM ([1]; 500 nM, Table 1): 3.1"
"CN(C)c1ccc2cc(-c3cc(F)ccc3F)c(N)nc2c1 [Arylquin 1k, 3-(2,5-Difluorophenyl)-N^7,N^7-dimethylquinoline-2,7-diamine]",–,86.2 ± 7.5,equipotent to the original arylquinoline 1a,–,"fold induction at 0.5 µM ([1]; 500 nM, Table 1): 2.9"
CCOC(=O)c1cn2c(n1)c(-c1ccccc1F)cc1ccc(N(C)C)cc12 [Arylquin 8b],–,–,little Par-4 secretory activity,–,–
CN(C)c1ccc2cc(-c3ccccc3F)c(=O)[nH]c2c1 [Arylquin 9],–,–,diminished Par-4 secretory activity relative to arylquinoline 1a,33.2 ± 0.9,"Ratio of Par-4 Secretion by Arylquin 1 Relative to Vehicle ([1]; 500 nM, Table 2): 1.1"
"CSc1nc2cc(N(C)C)ccc2cc1-c1ccccc1F [Arylquin 11, 3-(2-Fluorophenyl)-N,N-dimethyl-2-(methylthio)quinolin-7-amine]",–,–,diminished activity to varying degrees,75.4 ± 7.0,"fold induction at 0.5 µM ([1]; 500 nM, Table 2): 2.5"
"CN(C)c1ccc2cc(-c3ccccc3F)c(Cl)nc2c1 [Arylquin 12, 2-Chloro-3-(2-fluorophenyl)-N,N-dimethylquinolin-7-amine]",–,–,activity comparable to but not exceeding that of arylquinoline 1a,104.5 ± 26.9,"fold induction at 0.5 µM ([1]; 500 nM, Table 2): 3.5"
"CN1CCN(c2nc3cc(N(C)C)ccc3cc2-c2ccccc2F)CC1 [Arylquin 13b, 3-(2-Fluorophenyl)-N,N-dimethyl-2-(4-methylpiperazin-1-yl)quinolin-7-amine]",–,–,diminished activity to varying degrees,65.6 ± 3.6,"fold induction at 0.5 µM ([1]; 500 nM, Table 2): 2.2"
"Nc1nc2cc(C(=O)O)ccc2cc1-c1ccccc1F [Arylquin 15h, 2-Amino-3-(2-fluorophenyl)quinoline-7-carboxylic add]",–,–,reduced activity,<50,–

# More lines, main results first:
melting point,Compound,Relative Levels of Par-4 Secretion by Arylquins Administered at 500 nM ([1]; Table 1),Par-4 secretory activity (in words) ([1]; 500 nM),Relative Levels of Par-4 Secretion by Arylquins Administered at 500 nM ([1]; Table 2),also measured
159 to 160 °C,"CN(C)c1ccc2cc(-c3ccccc3Br)c(N)nc2c1 [Arylquin 1c, 3-(2-Bromophenyl)-N^7,N^7-dimethylquinoline-2,7-diamine]",33.6 ± 14.8,diminished activity,–,–
144 to 145 °C,"CN(C)c1ccc2cc(-c3cccc(Cl)c3)c(N)nc2c1 [Arylquin 1e, 3-(3-Chlorophenyl)-N^7,N^7-dimethylquinoline-2,7-diamine]",78.3 ± 15.3,no improvement,–,"fold induction at 0.5 µM ([1]; 500 nM, Table 1): 2.6"
169 to 170 °C,"CN(C)c1ccc2cc(-c3ccc(Cl)cc3)c(N)nc2c1 [Arylquin 1g, 3-(4-Chlorophenyl)-N^7,N^7-dimethylquinoline-2,7-diamine]",–,no improvement,–,–
174 to 175 °C,"CN(C)c1ccc2cc(-c3ccc(F)cc3F)c(N)nc2c1 [Arylquin 1j, 3-(2,4-Difluorophenyl)-N^7,N^7-dimethylquinoline-2,7-diamine]",80.8 ± 3.0,equipotent to the original arylquinoline 1a,–,"fold induction at 0.5 µM ([1]; 500 nM, Table 1): 2.7"
148 to 150 °C,"CN(C)c1ccc2cc(-c3c(F)cccc3F)c(N)nc2c1 [Arylquin 1m, 3-(2,6-Difluorophenyl)-N^7,N^7-dimethylquinoline-2,7-diamine]",44.6 ± 4.6,did not lead to improved activity,–,"fold induction at 0.5 µM ([1]; 500 nM, Table 1): 1.5"
163 to 164 °C,"CN(C)c1ccc2cc(-c3ccc(F)c(F)c3)c(N)nc2c1 [Arylquin 1n, 3-(3,4-Difluorophenyl)-N^7,N^7-dimethylquinoline-2,7-diamine]",58.4 ± 14.1,diminished activity relative to 1a,–,"fold induction at 0.5 µM ([1]; 500 nM, Table 1): 2"
160 to 162 °C,"CN(C)c1ccc2cc(-c3cc(F)cc(F)c3)c(N)nc2c1 [Arylquin 1o, 3-(3,5-Difluorophenyl)-N^7,N^7-dimethylquinoline-2,7-diamine]",47.4 ± 16.8,diminished activity relative to 1a,–,–
> 250 °C,"CN(C)c1ccc2cc3c(nc(N)c4ccccc43)nc2c1 [Arylquin 6, N^9,N^9-Dimethyldibenzo[b,f][1,8]naphthyridine-5,9-diamine]",–,biologically inactive,–,–
> 250 °C,"CN(C)c1ccc2cc3c(nc2c1)[nH]c(=O)c1ccccc13 [Arylquin 7, 9-(Dimethylamino)dibenzo[b,f][1,8]naphthyridin-5(6H)-one]",–,biologically inactive,–,–
142 to 143 °C,"Nc1nc2cccc(F)c2cc1-c1ccccc1F [Arylquin 15b, 5-Fluoro-3-(2-fluorophenyl)quinolin-2-amine]",–,equipotent to 15a,83.4,"fold induction at 0.5 µM ([1]; 500 nM, Table 2): 2.8"
194 to 196 °C,"Nc1nc2cccc(Cl)c2cc1-c1ccccc1F [Arylquin 15c, 5-Chloro-3-(2-fluorophenyl)quinolin-2-amine]",–,lower Par-4 secretory activity,63.2 ± 20.5,"fold induction at 0.5 µM ([1]; 500 nM, Table 2): 2.1"
209 to 210 °C,"Nc1nc2cccc(Br)c2cc1-c1ccccc1F [Arylquin 15d, 5-Bromo-3-(2-fluorophenyl)quinolin-2-amine]",–,lower Par-4 secretory activity,44.6,"fold induction at 0.5 µM ([1]; 500 nM, Table 2): 1.5"
138 to 139 °C,"Nc1nc2ccc(Cl)cc2cc1-c1ccccc1F [Arylquin 15e, 6-Chloro-3-(2-fluorophenyl)quinolin-2-amine]",–,equipotent to 15a,81.9 ± 11.2,"fold induction at 0.5 µM ([1]; 500 nM, Table 2): 2.8"
178 to 180 °C,"Nc1nc2cc(Cl)ccc2cc1-c1ccccc1F [Arylquin 15f, 7-Chloro-3-(2-fluorophenyl)quinolin-2-amine]",–,reduced activity,<50,–
114 to 116 °C,"COc1ccc2cc(-c3ccccc3F)c(N)nc2c1 [Arylquin 15g, 3-(2-Fluorophenyl)-7-methoxyquinolin-2-amine]",–,reduced activity,<50,–
